These results are taken from patent US4490363A, “Metorphamide--a novel morphine-like peptide” (Board of Trustees of The Leland Stanford Junior University …, priority 1983, dated 1984).

In data set [1] the test system is Rabbit vas deferens. In words: Opioid bioassay, rabbit vas deferens. Type of data set: cell-based. As to conditions: mean±SEM; peptidases inhibited by bestatin (30 μM), L-leucyl-L-leucine, thiorphan, captopril. The method, then:
(§1) Bioassays were performed using preparations of the myenteric plexus-longitudinal muscle of the guinea pig and the vasa deferentia of the mouse, rabbit and rat. According to the procedures described by McKnight et al., Eur. J. Pharmacol., 86, 393-402 (1983) and Corbett et al., Nature, 299, 79-81 (1982). The drugs were prepared as 1 mg/ml stock solutions in water and dilutions were made in Krebs solution. The bioassays were performed on [Met 5] enkephalin and C-terminally extended Met 5 enkephalins, and compared with metorphamide.
(§2) The values shown are the mean±SEM of 4 observations and of 6 for [Met^5 ]enkephalyl-Arg-Arg-Val-Gly. The activity of the peptidases was inhibited by bestatin (10 μM, or 30 μM in the rat and rabbit), L-leucyl-L-leucine ([…]), thiorphan (0.3 μM) and captopril (10 μM).

The target of data set [2] is μ-site. The data set can be described thus: Binding assay in guinea pig brain homogenates, μ-ligand [3H]-[D-Ala2,MePhe4,Gly-ol5]enkephalin. The following applies: for Ki: guinea-pig brain homogenates, 150 minutes at 0° C., mean ±SEM, read-out: KI, [3H]-[DAla2,MePhe4,Gly-ol5]enkephalin (μ-site). How it is done:
(§3) [^3 H]-[D-Ala^2,MePhe^4, Gly-ol^5 ]enkephalin (1 nM) was used as μ-ligand, [^3 H]-[D-Ala^2,D-Leu^5 ]enkephalin (1 nM) as a relatively selective δ-ligand and [^3 H]-(-)-bremazocine (0.3 nM) as κ-ligand, in the presence of 100 nM each of unlabelled [D-Ala^2,MePhe^4,Gly-ol^5 ]enkephalin and [D-Ala^2,D-Leu^5 ]enkephalin for the suppression of μ- and δ-binding.
(§4) The μ- and […] of [^3 H]-(-)-bremazocine was suppressed with 100 nM each of unlabelled [D-Ala^2,MePhe^4,Gly-ol^5 ]enkephalin and [D-Ala^2,D-Leu^5 ]enkephalin.

Data set [3] deals with δ-site. Type of data set: binding, guinea pig. As to conditions: for Ki: guinea-pig brain homogenates, 150 minutes at 0° C., mean ±SEM, read-out: KI, [3H]-[DAla2,D-Leu5]enkephalin (δ-site). How it is done:
as §3, §4

Data set [4] deals with myenteric plexus-longitudinal muscle of the guinea pig. The following applies: values marked ** (from literature); cited from earlier work.
Data set [5] concerns Mouse vas deferens. The following applies: values marked ** (from literature); cited from earlier work.
Data set [6] deals with Rat vas deferens. The following applies: values marked ** (from literature); cited from earlier work.
The target in data set [7] is T1, κ-site (Cavia porcellus, UniProt P41144).
T1 construct: The assays used homogenates of guinea-pig brain; from tissue; host or cells: guinea pig brain homogenate
The data set can be described thus: Binding assay in guinea pig brain homogenates, [3H]-(-)-bremazocine after suppression of μ- and δ-binding. How it is done: as §3, §4

For data set [8], the system named is anti-serum (R1-3) to synthetic metorphamide. The data set can be described thus: Radioaminoassay of metorphamide: cross-reaction with anti-serum R1-3, 125I-labeled synthetic metorphamide as tracer. Type of data set: binding, rabbit. As to conditions: on a molar basis. An excerpt:
An anti-serum to synthetic metorphamide was generated in male New Zealand white rabbits by injecting synthetic peptide linked to bovine thyroglobulin by carbodiimide according the method of Weber et al., J. Neurochem., 38, 436-447 (1982). The resulting anti-serum (R1-3) was used in a radioaminoassay using ^125 I labeled synthetic metorphamide as a tracer. The procedure used was as described by Weber et al. with modifications described by Weber et al., Nature, 299, 77-79 (1982). The metorphamide or radioaminoassay requires the carboxylterminal amide group as part of the recognition site. On a molar basis the free carboxy derivative of metorphamide cross reacts with less than 1.02% and the analog of metorphamide in which the carboxyterminal amide was substituted by a Glycine residue cross reacts at less than 0.3%. The adrenal medulla opioid peptides Bam-22 and Bam-12 (Mizuno et al., Biochem. Biophys. Res. Commun., 95, 1482-1488 (1980); Mizuno et al., Biochem. Biophys. Res. Commun., 97, 1283-1290 (1980)) which are carboxyterminal extensions of metorphamide both cross react less than 0.006% in the radioaminoassay.

Data set [9] relates to myenteric plexus-longitudinal muscle of the guinea pig. The data set can be described thus: Opioid bioassay, guinea-pig myenteric plexus-longitudinal muscle. Type of data set: cell-based. As to conditions: mean±SEM; peptidases inhibited by bestatin, L-leucyl-L-leucine, thiorphan, captopril. The method, then:
as §1, §2

The subject of data set [10] is Mouse vas deferens. The data set can be described thus: Opioid bioassay, mouse vas deferens. As to conditions: mean±SEM; peptidases inhibited by bestatin, L-leucyl-L-leucine, thiorphan, captopril. Type of data set: cell-based. The method, then:
as §1, §2

Data set [11] deals with Rat vas deferens. The data set can be described thus: Opioid bioassay, rat vas deferens. Type of data set: cell-based. As to conditions: peptidases inhibited by bestatin (30 μM), L-leucyl-L-leucine, thiorphan, captopril. The method, then: as §1, §2
In data set [12] the target is T2, carboxypeptidase A (Bos taurus, UniProt P00730).
T2 construct: purchased Sigma (printed as σ) type 1-DFP
T2 sequence (P00730 111-419): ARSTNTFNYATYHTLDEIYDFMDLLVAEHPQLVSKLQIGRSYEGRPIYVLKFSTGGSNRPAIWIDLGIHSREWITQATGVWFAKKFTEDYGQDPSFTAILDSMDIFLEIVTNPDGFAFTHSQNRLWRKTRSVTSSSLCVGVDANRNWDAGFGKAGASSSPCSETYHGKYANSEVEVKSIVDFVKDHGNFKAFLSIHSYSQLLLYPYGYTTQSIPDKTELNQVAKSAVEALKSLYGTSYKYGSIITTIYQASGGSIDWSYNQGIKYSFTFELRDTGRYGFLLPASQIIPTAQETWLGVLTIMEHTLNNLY
The data set can be described thus: Carboxypeptidase A digestion of bovine metorphamide and dynorphin. Type of data set: in vitro ADME. As to conditions: 400 ng enzyme, 37° C., pH 7.5. The method, then: A mixture of bovine metorphamide (30-35 pmol.) and synthetic dynorphin (60-70 pmol.) was dissolved in 1.6 ml. 0.02 m Tris buffer, containing 0.2 m NaCl and 0.1% Triton X-100, pH 7.5. 5 μl of a 20 mg/ml suspension of carboxypeptidase A (σ, type 1-DFP) containing 100 μg enzyme were dissolved in 1 ml. 10% LiCl. […] aliquots were withdrawn at times 1, 5, 10 and 60 minutes an equal volume of glacial acetic acid was added to each sample to terminate the enzyme reaction. After evaporation, the samples were assayed in triplicate by radioaminoassay for dynorphin and metorphamide. 0 time samples were withdrawn before enzyme was added to determine the amounts of peptides that were initially present in the incubation mixture. A separate sample of peptide mixture that received 4 μl of 10% LiCl without the enzyme was incubated at 37° C. for 60 minutes and 50 μl aliquots of this sample were also assayed for metorphamide and dynorphin. This latter sample served as a control for any non-specific degradation of peptide that may have occurred by unknown factors. […] The results of the digestion are shown in FIG. 2 wherein the metorphamide is indicated by O--O and dynorphin by X--X. Bovine metorphamide was stable to carboxypeptidase A digestion for at least 60 minutes while dynorphin was completely digested by the enzyme after 5 minutes.

[13] abbreviates: at KD concentrations of the tritiated ligands, total binding=1.

Where two headings read alike, the source gives them in different places. Peptide text beside a SMILES is read from it.

T1 sequence (P41144 whole entry): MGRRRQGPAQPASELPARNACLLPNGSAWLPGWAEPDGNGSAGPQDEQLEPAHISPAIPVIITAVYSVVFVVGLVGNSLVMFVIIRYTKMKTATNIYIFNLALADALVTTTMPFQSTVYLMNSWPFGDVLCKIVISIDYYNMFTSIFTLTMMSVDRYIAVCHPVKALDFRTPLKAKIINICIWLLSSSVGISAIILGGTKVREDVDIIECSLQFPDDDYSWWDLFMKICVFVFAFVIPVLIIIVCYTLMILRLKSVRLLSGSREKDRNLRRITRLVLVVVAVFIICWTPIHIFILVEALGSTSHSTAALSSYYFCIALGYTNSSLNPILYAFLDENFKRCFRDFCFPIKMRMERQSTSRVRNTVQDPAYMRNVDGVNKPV

By IC50 is commonly meant the concentration that gives 50% inhibition. Usually Ki stands for the equilibrium dissociation constant of an inhibitor or competing ligand from its target. For the compound `CSCC[C@H](NC(=O)[C@H](Cc1ccccc1)NC(=O)CNC(=O)CNC(=O)[C@@H](N)Cc1ccc(O)cc1)C(=O)O` [A, [Met^5]enkephalin], the IC50 in data set [1] is over 10000 nM; in [4], 6.7 nM; in data set [5], 1.45 nM; in data set [6] it was 260 nM. Also, the values for the Ki in [2] and in [3] were 9.5 ± 0.54 nM and 0.91 ± 0.07 nM, respectively.

Compound `CSCC[C@H](NC(=O)[C@H](Cc1ccccc1)NC(=O)CNC(=O)CNC(=O)[C@@H](N)Cc1ccc(O)cc1)C(=O)N[C@@H](CCCNC(=N)N)C(=O)N[C@@H](CCCNC(=N)N)C(=O)O` [C, [Met^5]enkephalylArg-Arg] yielded a Ki in [7] of 11.2 ± 1.8 nM.

`CSCC[C@H](NC(=O)[C@H](Cc1ccccc1)NC(=O)CNC(=O)CNC(=O)[C@@H](N)Cc1ccc(O)cc1)C(=O)N[C@@H](CCCNC(=N)N)C(=O)N[C@@H](CCCNC(=N)N)C(=O)N[C@H](C(=O)O)C(C)C` [D, [Met^5 ]enkephalylArg-Arg-Val] showed a Ki in [7] of 2.11 ± 0.29 nM.

For the compound `CSCC[C@H](NC(=O)[C@H](Cc1ccccc1)NC(=O)CNC(=O)CNC(=O)[C@@H](N)Cc1ccc(O)cc1)C(=O)N[C@@H](CCCNC(=N)N)C(=O)N[C@@H](CCCNC(=N)N)C(=O)N[C@H](C(=O)NCC(=O)O)C(C)C` [E] (H-YGGFMRRVG-OH; N-terminus and C-terminus assumed), the “cross reaction in the metorphamide radioaminoassay” value in data set [8] is recorded as “less than 0.3%”. The half-inhibitory concentration (IC50) in data set [9] is 6.62 ± 0.8 nM; in data set [10], 21.4 ± 3.1 nM; in [11], over 3000 nM; in [1] it was 54.7 ± 11 nM. Moreover, the Ki in data set [2] came out at 1.39 ± 0.23 nM; in data set [3], 8.58 ± 1.54 nM.

Take `CSCC[C@H](NC(=O)[C@H](Cc1ccccc1)NC(=O)CNC(=O)CNC(=O)[C@@H](N)Cc1ccc(O)cc1)C(=O)N[C@@H](CCCNC(=N)N)C(=O)N[C@@H](CCCNC(=N)N)C(=O)N[C@H](C(N)=O)C(C)C` [F]: the “time stable to carboxypeptidase A digestion” value in data set [12] is listed as “at least 60 minutes”. In addition, the 50% inhibitory concentration (IC50) in data set [9] was 2.46 ± 0.34 nM; in [10], 6.2 ± 1.1 nM; in data set [11] it was over 3000 nM; in data set [1], 41.2 ± 4.9 nM. Moreover, in data set [2] (setting [13]), the “relative potency (relative affinity) at the μ-site” value is reported as 0.66. For the same compound, the inhibition constant Ki in data set [2] came to 0.115 ± 0.019 nM; in data set [3] it was 2.65 ± 0.23 nM. Besides, the “activity for the μ-binding site relative to that of morphine” value in data set [2] (ratio of relative affinities) is listed as “approximately 2/3”. Moreover, in [3] (setting [13]), the “relative potency (relative affinity) at the δ-site” value is given as 0.03. Moreover, the “relative potency (relative affinity) at the κ-site” value in data set [7] (setting [13]) is 0.31.

As for `CC[C@H](C)[C@H](NC(=O)[C@H](CCCNC(=N)N)NC(=O)[C@H](CCCNC(=N)N)NC(=O)[C@H](CC(C)C)NC(=O)[C@H](Cc1ccccc1)NC(=O)CNC(=O)CNC(=O)[C@@H](N)Cc1ccc(O)cc1)C(=O)N[C@@H](CCCNC(=N)N)C(=O)N1CCC[C@H]1C(=O)N[C@@H](CCCCN)C(=O)N[C@@H](CC(C)C)C(=O)N[C@@H](CCCCN)C(=O)N[C@@H](Cc1c[nH]c2ccccc12)C(=O)N[C@@H](CC(=O)O)C(=O)N[C@@H](CC(N)=O)C(=O)N[C@@H](CCC(N)=O)C(=O)O` [dynorphin], the “time after which completely digested by carboxypeptidase A” value in [12] amounted to 5 min.
